Where a name gives a salt, the structure may show the parent alone.
Test: Stability of the deprotected bisthiol measured by HPLC with UV and mass detection
Assay type: physicochemical
Conditions: room temperature
Procedure: Stability of compound O-5648 (see Example 1, above) was measured by HPLC with UV and mass detection. The bisthiol free base was stable up to 100 hours at room temperature in methanol exposed to air.
The bisthiol dihydrochloride salt was stable in MeOH up to 150 hours at room temperature.
The solid bisthiol dihydrochloride salt exposed to air was stable for >170 hours at room temperature.

## CCC(=O)C1C2CC[C@H](C[C@H]1c1ccc(F)cc1)N2CCCN(CCS)CC(=O)NCCS (stereo partly drawn) [O-5648, N-[2-(3′-N′-Propyl-(1″R)-3″α-(4-fluorophenyl)tropane-2″β-(1-propanoyl)-[(2-mercapto-ethyl)-amino]-(2-mercapto-ethyl-acetamide, dihydrochloride salt]
Bisthiol dihydrochloride salt, in MeOH
  time stable (bisthiol dihydrochloride salt in MeOH): up to 150 hours
Bisthiol free base, in methanol exposed to air
  time stable (bisthiol free base in methanol): up to 100 hours
Solid bisthiol dihydrochloride salt exposed to air
  time stable (solid bisthiol dihydrochloride salt): > 170 h
